# Where two headings read alike, the source gives them in different places.
# Biological target: human Arginine Vasopressin Receptor 1a (AVPR1a) (Homo sapiens (Human), UniProt P37288)
# Assay: Vasopressin V1A receptor antagonist assay (AVP-evoked calcium, FLIPR, CHO-AVPR1a cells)
# Format: cell-based
# Procedure: The purpose of this assay was to determine the inhibitory effect of synthesized compounds on the Vasopressin V1a receptor. The assay as performed in Chinese Hamster Ovary (CHO) cells expressing the human Arginine Vasopressin Receptor 1a (AVPR1a). Arginine Vasopressin (AVP) evokes an increase in intracellular calcium in CHO-AVPR1a cells which is measured in a fluorescence assay on the FLIPR^TETRA using calcium sensitive dyes. Test compounds were assessed for their ability to affect the magnitude of the response to AVP, with antagonists showing a concentration-dependent reduction in the AVP-mediated fluorescence. Compounds were tested in duplicate in a 10-point, 1:3 dilution series starting at a nominal concentration of 3 μM in the assay.
# CHO-AVPR1a cells were maintained in routine culture in T175 Flasks at 37° C., 5% CO2. The growth medium consists of Ham's F12 media supplemented with 10% v/v fetal bovine serum, 1× non-essential amino acids, and 0.4 mg/ml Geneticin G418.
# On day one, cells were harvested from T175 flasks when they are 80-90% confluent by first washing the cell monolayer with PBS and then dissociated using trypsin 0.05%/EDTA (3 mL for a T175 Flask). The flasks were incubated at room temperature until the cells detached. To the cell suspension, 10 ml of growth media was added and the cell density determined using the Vi-Cell automated cell counter. The cells were spun at 1000 rpm for 3 minutes, then the supernatant was carefully removed and discarded. The cell pellet was re-suspended at 6.0e^5 cells/ml in growth media. 25 μL of cells in growth media was dispensed into each well (15,000 cells per well) of a poly-D-lysine coated black, clear bottomed, 384-well plate. The plates were incubated at 37° C., 5% CO2 overnight.
# At the start of each assay day, the potency of AVP was assessed and an EC80 concentration determined for subsequent compound profiling. Assays were performed using a two-step addition protocol on the FLIPR^TETRA; first addition of 5 μl of control or test compound at 10× final in assay buffer with 15 min incubation at 37° C., 5% CO2 followed by 10 μl of AVP at 6× final concentration in assay buffer. […] The assay buffer consisted of HBSS (+Ca/+Mg) supplemented with 20 mM HEPES, and for the preparation of the AVP agonist only, 0.1% w/v bovine serum albumin. The assay was initiated by the removal of growth media from the cells and replacement with 45 μl of Calcium-6 dye (Molecular Devices) prepared at 1× in assay buffer. Cells are loaded with dye for 60-90 min at 37° C., 5% CO2 before initiation of the FLIPR^TETRA protocol. […] At the end of the incubation period, 10 μl of AVP in assay buffer containing 0.1% BSA was added at the previously determined EC80 concentration.
# Sequence of human Arginine Vasopressin Receptor 1a (AVPR1a) (P37288 whole entry): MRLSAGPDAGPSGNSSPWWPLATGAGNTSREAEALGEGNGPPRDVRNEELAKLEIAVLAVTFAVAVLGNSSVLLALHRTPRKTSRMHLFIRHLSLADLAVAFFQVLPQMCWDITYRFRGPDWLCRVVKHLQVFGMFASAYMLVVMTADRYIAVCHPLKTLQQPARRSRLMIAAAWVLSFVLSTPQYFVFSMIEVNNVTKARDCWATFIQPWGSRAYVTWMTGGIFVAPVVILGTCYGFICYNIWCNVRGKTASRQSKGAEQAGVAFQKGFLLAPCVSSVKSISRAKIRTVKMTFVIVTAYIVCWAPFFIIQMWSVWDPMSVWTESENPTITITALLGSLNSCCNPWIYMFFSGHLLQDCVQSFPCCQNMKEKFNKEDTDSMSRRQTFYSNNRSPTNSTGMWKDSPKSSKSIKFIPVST
Compound,IC50 (read-out: V1a IC50) [nM],IC50 [nM]
Cc1cc(N2CC3(CC(c4nnc5n4-c4ccc(Cl)cc4CN(C4(C)CC4)C5)C3)C2)ncc1F [compound 245],< 100,
COc1cc(N2CC3(CC(c4nnc5n4-c4ccc(Cl)cc4CN(C4CC4)C5)C3)C2)ncc1F [compound 249],< 100,
CC1(N2Cc3cc(Cl)ccc3-n3c(nnc3C3CC4(C3)CN(c3ncc(F)cn3)C4)C2)CC1 [compound 261],< 100,
COCCN1Cc2cc(Cl)ccc2-n2c(nnc2C2CC3(C2)CN(c2ccc(F)cn2)C3)C1 [compound 44],< 100,
"COC(=O)N1Cc2cc(Cl)ccc2-n2c(C3CC4(C3)CN(c3ncc(F)cn3)C4)nnc2C1C (single isomer, unassigned) [Cpd 170B]",500 to 1000,
CCOC(=O)N1Cc2cc(Cl)ccc2-n2c(C3CC4(C3)CN(c3nccc(C(F)(F)F)n3)C4)nnc2C1C (stereo not shown) [compound 190],< 100,
"COC(=O)N1Cc2cc(Cl)ccc2-n2c(C3CC4(C3)CN(c3ncccn3)C4)nnc2C1C (single isomer, unassigned) [Cpd 166B]",500 to 1000,
Cc1nc(N2CC3(CC(c4nnc5n4-c4ccc(Cl)cc4CN(C)C5)C3)C2)ncc1F [compound 240],< 100,
Clc1ccc2c(c1)CN(C1CC1)Cc1nnc(C3CC4(C3)CN(c3noc(C5CC5)n3)C4)n1-2 [compound 269],,500 to 1000
CN1Cc2cc(Cl)ccc2-n2c(nnc2C2CC3(C2)CN(C(=O)N2CCOCC2)C3)C1 [compound 25],> 1000,
CN1Cc2cc(Cl)ccc2-n2c(nnc2C2CC3(C2)CN(C(=O)C2CC2(F)F)C3)C1 (stereo not shown) [compound 124],,100 to 500
N#Cc1ccnc(N2CC3(CC(c4nnc5n4-c4ccc(Cl)cc4CN(C4CC4)C5)C3)C2)n1 [compound 248],< 100,
CN1Cc2cc(Cl)ccc2-n2c(nnc2C2CC3(C2)CN(C(=O)OC2CCOCC2)C3)C1 [compound 29],> 1000,
"COC(=O)N1Cc2cc(Cl)ccc2-n2c(C3CC4(C3)CN(c3ccncn3)C4)nnc2C1C (single isomer, unassigned) [Cpd 184B]",> 1000,
CC1(N2Cc3cc(Cl)ccc3-n3c(nnc3C3CC4(C3)CN(c3cccc(C#N)n3)C4)C2)CC1 [compound 262],< 100,
"CCOC(=O)N1Cc2cc(Cl)ccc2-n2c(C3CC4(C3)CN(c3ccc(F)cn3)C4)nnc2C1C (single isomer, unassigned) [Cpd 169B]",100 to 500,
CN1Cc2cc(Cl)ccc2-n2c(nnc2C2CC3(C2)CN(C(=O)c2ccccn2)C3)C1 [compound 24],> 1000,
"COC(=O)N1Cc2cc(Cl)ccc2-n2c(C3CC4(C3)CN(c3cnccn3)C4)nnc2C1C (single isomer, unassigned) [Cpd 165B]",500 to 1000,
CC1(N2Cc3cc(Cl)ccc3-n3c(nnc3C3CC4(C3)CN(c3ncccn3)C4)C2)CC1 [compound 264],< 100,
"CC1c2nnc(C3CC4(C3)CN(c3ccc(F)cn3)C4)n2-c2ccc(Cl)cc2CN1C(=O)OC1CC1 (single isomer, unassigned) [Cpd 191B]",> 1000,
CC(C)C(=O)N1CC2(CC(c3nnc4n3-c3ccc(Cl)cc3CN(C)C4)C2)C1 [compound 30],,100 to 500
"O=C(NC1CC1)N1Cc2cc(Cl)ccc2-n2c(nnc2C2CC3(C2)CN(c2ccc(F)cn2)C3)C1 [compound 246, 8-chloro-N-cyclopropyl-1-(2-(5-fluoropyridin-2-yl)-2-azaspiro[3.3]heptan-6-yl)-4H-benzo[f][1,2,4]triazolo[4,3-a][1,4]diazepine-5(6H)-carboxamide]",< 100,
COC(=O)N1Cc2cc(Cl)ccc2-n2c(nnc2C2CC3(C2)CN(c2ccncn2)C3)C1 [compound 186],,100 to 500
CN1Cc2cc(Cl)ccc2-n2c(nnc2C2CC3(C2)CN(c2noc4ccccc24)C3)C1 [compound 256],< 100,
COCC(=O)N1CC2(CC(c3nnc4n3-c3ccc(Cl)cc3CN(C)C4)C2)C1 [compound 126],> 1000,

Compound,IC50 (read-out: V1a IC50) [nM],IC50 [nM]
N#Cc1ccnc(N2CC3(CC(c4nnc5n4-c4ccc(Cl)cc4CN(C4CC4)C5)C3)C2)c1 [compound 232],< 100,
CC1(N2Cc3cc(Cl)ccc3-n3c(nnc3C3CC4(C3)CN(c3ccncn3)C4)C2)CC1 [compound 254],,100 to 500
FC(F)(F)Oc1cccnc1N1CC2(CC(c3nnc4n3-c3ccc(Cl)cc3CN(C3CC3)C4)C2)C1 [compound 272],< 100,
CN1Cc2cc(Cl)ccc2-n2c(nnc2C2CC3(C2)CN(c2nn(C)c4ncccc24)C3)C1 [compound 231],,100 to 500
"Cc1ccnc(N2CC3(CC(c4nnc5n4-c4ccc(Cl)cc4CN(C)C5)C3)C2)c1 [compound 241, 8-chloro-5-methyl-1-(2-(4-methylpyridin-2-yl)-2-azaspiro[3.3]heptan-6-yl)-5,6-dihydro-4H-benzo[f][1,2,4]triazolo[4,3-a][1,4]diazepine]",< 100,
O=C(C1C[C@@H]1F)N1Cc2cc(Cl)ccc2-n2c(nnc2C2CC3(C2)CN(c2ccc(F)cn2)C3)C1 (stereo partly shown) [compound 159],< 100,
"COC(=O)N1Cc2cc(Cl)ccc2-n2c(C3CC4(C3)CN(c3ccncn3)C4)nnc2C1C (stereo not shown) [compound 184, methyl 8-chloro-4-methyl-1-(2-(pyrimidin-4-yl)-2-azaspiro[3.3]heptan-6-yl)-4H-benzo[f][1,2,4]triazolo[4,3-a][1,4]diazepine-5(6H)-carboxylate]",100 to 500,
"CC(C)OC(=O)N1Cc2cc(Cl)ccc2-n2c(C3CC4(C3)CN(c3ncccn3)C4)nnc2C1C (single isomer, unassigned) [Cpd 167B]",> 1000,
Cc1ccc(N2CC3(CC(c4nnc5n4-c4ccc(Cl)cc4CN(C4CC4)C5)C3)C2)nc1 [compound 227],< 100,
Cc1cc(N2CC3(CC(c4nnc5n4-c4ccc(Cl)cc4CN(C)C5)C3)C2)ncc1F [compound 252],< 100,
N#Cc1cccc(N2CC3(CC(c4nnc5n4-c4ccc(Cl)cc4CN(C4CC4)C5)C3)C2)n1 [compound 228],< 100,
COCCN1Cc2cc(Cl)ccc2-n2c(nnc2C2CC3(C2)CN(c2cccnc2)C3)C1 [compound 55],,100 to 500
CN1Cc2cc(Cl)ccc2-n2c(nnc2C2CC3(C2)CN(C(=O)C2(C)CC2)C3)C1 [compound 31],,100 to 500
Cc1cnc(N2CC3(CC(c4nnc5n4-c4ccc(Cl)cc4CN(C)C5)C3)C2)nc1 [compound 239],,100 to 500
"CC1c2nnc(C3CC4(C3)CN(c3ccc(F)cn3)C4)n2-c2ccc(Cl)cc2CN1C(=O)C(C)(C)F (single isomer, unassigned) [Cpd 178B]",100 to 500,
CN1Cc2cc(Cl)ccc2-n2c(nnc2C2CC3(C2)CN(c2ncncc2F)C3)C1 [compound 238],< 100,
"Cc1nc(N2CC3(CC(c4nnc5n4-c4ccc(Cl)cc4CN(C4CC4)C5)C3)C2)no1 [compound 268, 3-(6-(8-chloro-5-cyclopropyl-5,6-dihydro-4H-benzo[f][1,2,4]triazolo[4,3-a][1,4]diazepin-1-yl)-2-azaspiro[3.3]heptan-2-yl)-5-methyl-1,2,4-oxadiazole]",,100 to 500
"CCOC(=O)N1Cc2cc(Cl)ccc2-n2c(C3CC4(C3)CN(c3ncccn3)C4)nnc2C1C (single isomer, unassigned) [Cpd 168B]",100 to 500,
"CCOC(=O)N1Cc2cc(Cl)ccc2-n2c(C3CC4(C3)CN(c3ncc(F)cn3)C4)nnc2C1C (single isomer, unassigned) [Cpd 172B]",> 1000,
CC1c2nnc(C3CC4(C3)CN(c3ccc(F)cn3)C4)n2-c2ccc(Cl)cc2CN1C(=O)C(C)(C)F (stereo not shown) [compound 178],< 100,
CN1Cc2cc(Cl)ccc2-n2c(nnc2C2CC3(C2)CN(c2nc4cnccc4n2C)C3)C1 [compound 258],> 1000,
Cc1nc(N2CC3(CC(c4nnc5n4-c4ccc(Cl)cc4CN(C4(C)CC4)C5)C3)C2)ccc1F [compound 260],< 100,
"CC(C)OC(=O)N1Cc2cc(Cl)ccc2-n2c(C3CC4(C3)CN(c3ncc(F)cn3)C4)nnc2C1C (single isomer, unassigned) [Cpd 201B]",500 to 1000,
CN1Cc2cc(Cl)ccc2-n2c(nnc2C2CC3(C2)CN(C(=O)C2CCOCC2)C3)C1 [compound 27],> 1000,

# Reference: patent publication US11186577B2, “Vasopressin receptor antagonists and products and methods related thereto” (BlackThorn Therapeutics, Inc., priority 2017, dated 2021)
